This note sets out measurements from article PMC2782309 (2009).

For the test, the target named is TRPM2 (transient receptor potential cation channel, subfamily melastatin, member 2) (Homo sapiens, UniProt O94759). As to the kind of experiment: whole-cell patch clamp with ADPR infused through the pipette. It is filed as cell-based. (In general: In patch-clamp work, channel activity is measured electrically.)

One may read the EC50 as the concentration at which the effect is half-maximal. A high value points to a less potent agent.

Sequence of TRPM2 (transient receptor potential cation channel, subfamily melastatin, member 2) (O94759 whole entry, the tested form may be a part): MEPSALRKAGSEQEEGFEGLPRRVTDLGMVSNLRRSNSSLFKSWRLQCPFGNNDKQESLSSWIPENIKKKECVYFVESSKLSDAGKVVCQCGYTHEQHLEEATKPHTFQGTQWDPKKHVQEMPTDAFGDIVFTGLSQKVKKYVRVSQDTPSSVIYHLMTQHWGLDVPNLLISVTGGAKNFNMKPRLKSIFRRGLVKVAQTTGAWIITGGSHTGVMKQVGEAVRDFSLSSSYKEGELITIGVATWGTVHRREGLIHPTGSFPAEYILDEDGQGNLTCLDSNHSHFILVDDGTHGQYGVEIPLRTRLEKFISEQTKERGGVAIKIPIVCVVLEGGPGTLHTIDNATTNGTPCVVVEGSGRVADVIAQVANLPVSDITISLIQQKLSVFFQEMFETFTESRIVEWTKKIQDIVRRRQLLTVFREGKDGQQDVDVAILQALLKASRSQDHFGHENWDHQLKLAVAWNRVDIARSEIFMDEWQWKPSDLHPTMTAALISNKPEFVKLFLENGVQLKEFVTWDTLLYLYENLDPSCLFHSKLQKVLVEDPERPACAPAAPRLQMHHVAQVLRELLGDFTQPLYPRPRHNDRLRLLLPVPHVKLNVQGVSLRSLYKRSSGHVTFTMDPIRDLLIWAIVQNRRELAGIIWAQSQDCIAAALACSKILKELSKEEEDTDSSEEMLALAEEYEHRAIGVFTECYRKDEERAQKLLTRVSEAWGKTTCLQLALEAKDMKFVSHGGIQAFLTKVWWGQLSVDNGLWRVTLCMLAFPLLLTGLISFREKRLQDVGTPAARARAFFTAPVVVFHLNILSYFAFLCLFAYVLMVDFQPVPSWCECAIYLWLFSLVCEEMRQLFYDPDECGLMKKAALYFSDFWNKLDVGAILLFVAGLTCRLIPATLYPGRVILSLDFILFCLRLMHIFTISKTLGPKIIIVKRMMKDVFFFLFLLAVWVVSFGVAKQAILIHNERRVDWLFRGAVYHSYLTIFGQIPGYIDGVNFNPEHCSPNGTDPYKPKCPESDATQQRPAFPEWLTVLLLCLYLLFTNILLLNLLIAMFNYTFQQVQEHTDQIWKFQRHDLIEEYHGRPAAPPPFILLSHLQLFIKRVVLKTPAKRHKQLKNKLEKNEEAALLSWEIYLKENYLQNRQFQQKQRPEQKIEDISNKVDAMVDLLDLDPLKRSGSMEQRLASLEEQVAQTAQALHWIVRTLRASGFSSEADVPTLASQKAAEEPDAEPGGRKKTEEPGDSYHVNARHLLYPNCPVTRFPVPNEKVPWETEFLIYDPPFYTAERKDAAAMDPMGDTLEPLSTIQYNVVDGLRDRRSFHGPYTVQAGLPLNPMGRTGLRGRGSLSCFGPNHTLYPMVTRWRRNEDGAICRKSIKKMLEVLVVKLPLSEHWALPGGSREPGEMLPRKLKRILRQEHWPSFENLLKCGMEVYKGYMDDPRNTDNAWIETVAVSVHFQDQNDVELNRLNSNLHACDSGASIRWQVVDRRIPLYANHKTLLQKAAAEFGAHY

As to `Nc1ncnc2c1ncn2[C@@H]1O[C@H](COP(=O)(O)OP(=O)(O)OC[C@H]2OC(O)[C@H](O)[C@@H]2O)[C@@H](O)[C@H]1O` (stereo partly shown) [ADPR], the EC50 was found to be 133 µM.
